According to US20120202756A1, “USE OF PRODRUGS TO AVOID GI MEDIATED ADVERSE EVENTS” (priority 2009, published 2012):
≈ marks a conversion by molar mass, not a printed value. Where “and” joins values, the source holds several entries; their conditions need not be identical. Equal entries are not always repeated. Where two headings read alike, the source gives them in different places.

Key:
[1] = Stability in simulated intestinal juice (FeSSIF); type: in vitro ADME; details: FeSSIF pH 5.0, pancreatin 1%
Description: (§1) To avoid direct interaction between the active drug and the gut microfloral population, the prodrug should not undergo premature chemical or enzymic cleavage back to the parent dug while within the gut lumen. To confirm this the prodrugs were incubated with USP SGF (simulated gastric fluid), FeSSIF (fed state simulated intestinal fluid) and FaSSIF (fasted state simulated intestinal fluid) and remaining prodrug and any generated active drug assayed by use of a qualified LC-MS/MS analytical method.
Pancreatin was again added at 1%.
(§2) To minimize the direct inhibitory action of this drug on gastric emptying/gut motility—and resultant nausea—the prodrug should not undergo premature chemical or enzymic cleavage back to the parent drug while within the gut lumen. To confirm this, the prodrugs were incubated with USP SGF (simulated gastric fluid), FeSSIF (fed state simulated intestinal fluid) and FaSSIF (fasted state simulated intestinal fluid) and remaining prodrug, and any generated active drug, assayed by use of a qualified LC-MS/MS analytical method.
as §1, with “gut,” for “gut microfloral population,”

[2] = Stability in USP simulated gastric juice; type: in vitro ADME; details: USP SGF pH 1.1, pepsin […], prodrug 20 μg/mL
Source text: To minimize the direct inhibitory action of this drug on gastric emptying/gut motility—and resultant nausea—the prodrug should not undergo premature chemical or enzymic cleavage back to the parent drug while within the gut lumen.

[3] = Stability in simulated intestinal juice (FaSSIF); type: in vitro ADME; details: FaSSIF pH 6.5, pancreatin 1%, prodrug 20 μg/mL
Description: as §1
(§3) Method—Prodrug (20 μg/mL) in the FaSSIF cocktail comprising sodium taurocholate 3 mM, lecithin 0.75 mM, NaOH 8.7 mM, NaH2PO4. H2O 28.7 mM, NaCl 106 mM, pancreatin 1% (overall pH 6.5) was incubated for 2 h at 37° C. After acidifying the incubation to stop any reaction the amount of prodrug remaining and drug generated were determined using a qualified LC-MS/MS method.
as §2
as §3, with “Prodrug” for “Method—Prodrug”
as §1, with “gut,” for “gut microfloral population,”

[4] = male rats; for Frel: relative bioavailability of donepezil vs dosing donepezil itself, mean
Description: Serial tail vein blood samples were subsequently collected via an indwelling cannuala into EDTA tubes containing a stabilising cocktail (including 6 mg/mL NaF) to prevent post collection enzymic hydrolysis of the prodrug.

[5] = % of treated patients, cited from earlier work
Bifidobacterium dentium = test: MIC agar dilution; type: cell-based; details: NCTC11816
Propionibacterium acnes = test: MIC agar dilution
[6] = test system: Fusobacterium necrophorum; test: MIC agar dilution; type: cell-based; details: clinical isolate
[7] = test system: Peptostreptococcus magnus; test: MIC agar dilution; type: cell-based; details: Finegoldia magna; clinical isolate
Clostridium sporogenes = test: MIC agar dilution; type: cell-based; details: ATCC3584, ATCC 3584
Clostridium novyi = test: MIC agar dilution; type: cell-based; details: ATCC19402
Campylobacter jejuni = test: MIC agar dilution
[8] = test system: Peptostreptococcus anaerobius; test: MIC agar dilution; type: cell-based; details: NCTC11460
[9] = test system: Porphyromonas endodontalis; test: MIC agar dilution; type: cell-based; details: clinical isolate
Helicobacter pylori = test: MIC agar dilution
[10] = test system: Porphyromonas assacharolyticus; test: MIC agar dilution; type: cell-based; details: clinical isolate
Prevotella denticola = test: MIC agar dilution; type: cell-based; details: clinical isolate
[11] = test system: Bacteroides thetaiotamicron; test: MIC agar dilution; type: cell-based
Clostridium difficile = test: MIC agar dilution; type: cell-based; details: Clostridioides difficile
Prevotella bivia = test: MIC agar dilution; type: cell-based; details: ATCC29303, ATCC 29303
Clostridium perfringens = test: microbe, parasite or virus in culture; type: cell-based
[12] = Bioavailability of metronidazole from its prodrugs in the rat; details: male rats; for T>50% Cmax: period plasma metronidazole at or above 50% of Cmax, oral 1 mg equivalents/kg
Description: In order to confirm successful absorption and subsequent hydrolysis of these metronidazole prodrugs, a comparative bioavailability study was undertaken in the rat Methods—Three groups of five male Sprague Dawley rats were orally dosed with either metronidazole itself or its succinyl valine or glutaryl para-amino benzoic acid ester prodrugs. Serial tail vein blood samples were subsequently collected via an indwelling cannuala into EDTA tubes containing a stabilising cocktail (including 6 mg/mL NaF) to prevent post collection enzymic hydrolysis of the prodrug. Separated plasma samples were subjected to bioanalysis for both the prodrugs and metronidazole itself using a qualified LC/MS-MS bioanalytical method.

Clostridium sordellii = test: MIC agar dilution; type: cell-based; details: Paraclostridium sordellii, NCTC13356; NCTC 13356
Bacteroides fragilis = test: MIC agar dilution
Eggerthella lenta = test: MIC agar dilution; type: cell-based; details: ATCC43055, ATCC 43055
Campylobacter coli = test: MIC agar dilution
Bifidobacterium longum = test: MIC agar dilution; type: cell-based; details: NCTC11818
Veillonella spp. = test: MIC agar dilution; type: cell-based; details: clinical isolate
Veillonella atypical = test: MIC agar dilution; type: cell-based; details: NCTC11830
[13] = test system: Peptostreptococcus micros; test: MIC agar dilution; type: cell-based; details: Parvimonas micra; clinical isolate
Veillonella parvula = test: MIC agar dilution; type: cell-based; details: NCTC11810
Clostridium bifermentans = test: MIC agar dilution; type: cell-based; details: Paraclostridium bifermentans, ATCC638
[14] = test system: Bifidobacterium adolescentis; test: MIC agar dilution; type: cell-based; details: NCTC11814
hNav1.1 channel = biological target: T1, hNav1.1 channel (Homo sapiens, UniProt P35498); test: Blockade of cloned Nav1.1 channels expressed in mammalian cells; type: cell-based
T1 construct: expressed in transfected cells
Description: Blockade of hNav1.1 channel was measured using a stimulus voltage pattern shown in the diagram below: Voltage potentials are indicated in Table 13. The pulse pattern was repeated twice: before and 5 minutes after TA addition and peak current amplitudes at three test pulses were measured (ITP1, TP11 and ITP12).
Data acquisition and analyses was performed using the lonWorks Quattro™ system operation software (version 2.0.2; Molecular Devices Corporation, Union City, Calif.). Data was corrected for leak current.
The tonic block was calculated as:
% Block (Tonic)=(1−ITP1,TA/ITP1,Control)×100%,
10 Hz Block—the frequency-dependent block at stimulation frequency 10 Hz was calculated as:
% Block (10 Hz)=(1−ITP11, TA/ITP11, Control))×100%,
We define the inactivation state block as decrease in test pulse (TP12) current amplitude due to the conditioning depolarizing pulse (TP11). The inactivation state block was calculated as:
% Block (inactivation state)=(1−(ITP12, TA/[…])×100%,
Concentration-response data for the blocks were fit to an equation of the following form: […]
where [Test] is the concentration of test article, IC50 is the concentration of the test article producing half-maximal inhibition, N is the Hill coefficient, and % Block is the percentage of ion channel current inhibited at each concentration of the test article. Nonlinear least squares fits were solved with the Solver add-in for Excel 2000 (Microsoft, Redmond, Wash.).

[15] = frequency-dependent block at 10 Hz (TP11), read-out: IC50 10 Hz block
[16] = inactivation state block (TP12), read-out: IC50 Inactivated state
[17] = tonic block (TP1), read-out: IC50 Tonic block

CCOC(=O)c1ccc(NC(=O)CCCC(=O)OC2=C(CC3CCN(Cc4ccccc4)CC3)Cc3cc(OC)c(OC)cc32)cc1 [Donepezil glutaryl PABA ethyl ester, donepezil[glutaryl-PABA ethyl ester]enol ester]
Simulated intestinal juice (2 h, 37° C.) (FeSSIF) % active drug generated [1]: 1% | Simulated gastric juice (1 h, 37° C.) % active drug generated [2]: 2% | Simulated intestinal juice (2 h, 37° C.) (FaSSIF) % active drug generated [3]: 2% | Prodrug plasma levels ([4]; oral): undetectable | Frel [4]: 30%

C#Cc1cccc(Nc2ncnc3cc(OCCOC)c(OCCOC)cc23)c1 [erlotinib]
incidence of diarrhoea [5]: 50-60%

Cc1ccc(Nc2nccc(N(C)c3ccc4c(C)n(C)nc4c3)n2)cc1S(N)(=O)=O [pazopanib]
incidence of diarrhoea [5]: ~50% | incidence of diarrhoea ([5]; listed as pazapanib): > 50%

Cc1cn([C@H]2C=C[C@@H](CO)O2)c(=O)[nH]c1=O [Stavudine]
incidence of diarrhoea [5]: 44% | incidence of nausea and vomiting [5]: 39-44%

Cc1ncc([N+](=O)[O-])n1CCO [Metronidazole, metronidazole, reference compound]
MIC (Bifidobacterium dentium): 16 µg/mL (≈ 93.5 µM) | MIC (Propionibacterium acnes; Cutibacterium acnes): > 64 µg/mL | MIC (Propionibacterium acnes; clinical isolate MIC clindamycin 0.5 mg/L): >64 µg/mL | MIC [6]: 0.12 µg/mL (≈ 0.701 µM) | MIC [7]: 0.25 µg/mL (≈ 1.46 µM) | MIC (Clostridium sporogenes): 0.06 µg/mL (≈ 0.351 µM) | MIC (Clostridium novyi): 0.5 µg/mL (≈ 2.92 µM) | MIC (Campylobacter jejuni): 8 µg/mL (≈ 46.7 µM) | MIC (Campylobacter jejuni; ATCC33560): 1 µg/mL (≈ 5.84 µM) | MIC [8]: 0.12 µg/mL (≈ 0.701 µM) | MIC [9]: 1 µg/mL (≈ 5.84 µM) | MIC (Helicobacter pylori; clinical isolate (first listed, r83)): 2 µg/mL (≈ 11.7 µM) | MIC (Helicobacter pylori; clinical isolate (second listed, r85)): 2 µg/mL (≈ 11.7 µM) | MIC [10]: 0.5 µg/mL (≈ 2.92 µM) | MIC (Prevotella denticola): 0.5 µg/mL (≈ 2.92 µM) | MIC ([11]; ATCC29741): 1 µg/mL (≈ 5.84 µM) | MIC ([11]; NCTC10582): 1 µg/mL (≈ 5.84 µM) | MIC (Clostridium difficile; ATCC700057, ATCC 700057): 0.12 µg/mL (≈ 0.701 µM) | MIC (Clostridium difficile; NCTC13366, NCTC 13366 - NAP1/027): 0.12 µg/mL (≈ 0.701 µM) | MIC (Clostridium difficile; antibiotic-susceptible clinical isolate): 0.06 µg/mL (≈ 0.351 µM) | MIC (Prevotella bivia): 1 µg/mL (≈ 5.84 µM) | MIC (Clostridium perfringens): 2 µg/mL (≈ 11.7 µM) | MIC (Clostridium perfringens; ATCC13124): 1 µg/mL (≈ 5.84 µM) | time of peak plasma levels after dosing ([12]; oral): ≤ 15 min | T>50% Cmax ([12]; individual animals): 1.5 h and 1.75 h and 2.75 h and 3.0 h and 2.5 h | T>50% Cmax ([12]; mean): 2.3 ± 0.65 h and 2.3 h | MIC (Clostridium sordellii): 0.5 µg/mL (≈ 2.92 µM) | MIC (Bacteroides fragilis): 0.5 µg/mL (≈ 2.92 µM) | MIC (Bacteroides fragilis; ATCC25285): 0.5 µg/mL (≈ 2.92 µM) | MIC (Eggerthella lenta): 0.5 µg/mL (≈ 2.92 µM) | MIC (Campylobacter coli): 1 µg/mL (≈ 5.84 µM) | MIC (Campylobacter coli; ATCC33559): 0.5 µg/mL (≈ 2.92 µM) | MIC (Bifidobacterium longum): 8 µg/mL (≈ 46.7 µM) | MIC (Veillonella spp.): 2 µg/mL (≈ 11.7 µM) | MIC (Veillonella atypical): 8 µg/mL (≈ 46.7 µM) | MIC [13]: 0.25 µg/mL (≈ 1.46 µM) | MIC (Veillonella parvula): 4 µg/mL (≈ 23.4 µM) | MIC (Clostridium bifermentans): 0.25 µg/mL (≈ 1.46 µM) | MIC [14]: 32 µg/mL (≈ 187 µM)

COc1ccc(C(CN(C)C)C2(O)CCCCC2)cc1 (centres unmarked) [venlefaxine, venlafaxine]
incidence of nausea [5]: Up to 30%

CCOC(=O)[C@@H](NC(=O)CCCC(=O)OC1=C(CC2CCN(Cc3ccccc3)CC2)Cc2cc(OC)c(OC)cc21)C(C)C [Donepezil glutaryl valine ethyl ester, donepezil[glutaryl-(S)-valineethyl ester]enol ester]
Simulated intestinal juice (2 h, 37° C.) (FeSSIF) % active drug generated [1]: 3% | Simulated gastric juice (1 h, 37° C.) % active drug generated [2]: 2% | Simulated intestinal juice (2 h, 37° C.) (FaSSIF) % active drug generated [3]: 11% | plasma persistence of donepezil ([4]; oral): not in evidence | Frel [4]: 31%

CCCNCC(COc1ccccc1C(=O)CCc1ccccc1)OC(=O)CCC(=O)N[C@H](C(=O)O)C(C)C (stereo partly drawn) [Propafenone succinyl valine ester, Propafenone[succinyl-(S)-valine]ester]
IC50 (hNav1.1 channel; [15]): 69.5 µM | IC50 (hNav1.1 channel; [16]): 37.2 µM | IC50 (hNav1.1 channel; [17]): 151 µM

CC(C)CN(C[C@@H](O)[C@H](Cc1ccccc1)NC(=O)O[C@H]1CCOC1)S(=O)(=O)c1ccc(N)cc1 [amprenavir]
incidence of diarrhoea [5]: 39% | incidence of nausea [5]: 74% | incidence of vomiting [5]: 34%

CCCNCC(COc1ccccc1C(=O)CCc1ccccc1)OC(=O)CCCC(=O)Nc1ccc(C(=O)O)cc1 (centres unmarked) [Propafenone glutaryl PABA ester, Propafenone (glutaryl-PABA) ester]
IC50 (hNav1.1 channel; [15]): 96.3 µM | IC50 (hNav1.1 channel; [16]): 32.2 µM | IC50 (hNav1.1 channel; [17]): 464 µM

CCCCN1C[C@H](O)[C@@H](O)[C@H](O)[C@H]1CO [miglustat]
incidence of diarrhoea [5]: up to 89%
